Test results reported in patent publication US9074163B2, “Targeted performance of hypohalite systems thereof” (The Clorox Company, priority 2012, dated 2015).

Experiment: percentage initial hypochlorite remaining as a function of time after mixing oxidant with reductant
Format: physicochemical
Conditions: any pH below 12
Source text: The amount of available halogen oxidant in the composition may be determined by placing samples of the composition into about 50 milliliters of distilled water, followed by addition of about 10 milliliters of a 10 wt % solution of potassium iodide and addition of about 10 milliliters of a 10 volume % solution of sulfuric acid, the resulting mixture being well stirred. The resulting yellow to brown solution, whose color is the result of oxidation of free iodine ion (I′) to molecular iodine (I2), is then volumetrically titrated to an essentially colorless endpoint by addition of standardized 0.1 Molar sodium thiosulfate (Na2S2O3) titrant. […] Stability results are then expressed by repeated assays over time using identically prepared samples resulting from the same composition, normalized to 100 percent representative of the starting available chlorine measured initially.
Alternatively, at lower concentrations of hypochlorite, generally below about 2,000 ppm or 0.2 wt %, spectroscopic measurement of the absorption of aqueous solutions may be used to monitor the concentration, and resulting changes, of the hypochlorous acid species in solution. […] By use of controls, the relative level of hypochlorite can then be monitored and calculated by measuring absorbance of solutions by means of a suitable instrument, such as a spectrophotometer. […]

With O=C(O)CN(CCN(CC(=O)O)CC(=O)O)CC(=O)O [EDTA, ethylene diamine tetra-acetic acid] the “reaction of reductant with hypochlorite (quenching rate)” value was “reacts almost instantly”.
